Assay results as given in patent publication US20090203773A1, “Compounds for the Treatment of Non-Autoimmune Type 2 Diabetes Mellitus and/or Syndrome X” (priority 2005, published 2009).

What was measured:
C3H10T1/2 cells [1] = assay: Differentiation of adipocytes (oil Red O staining); type: cell-based; conditions: for Adipocyte differentiation, oil Red O, Mean OD ± SEM: 10-day treatment, absorbance at 540 nm; for Differentiation of the cells into adipocytes, result in words: co-treatment with insulin, compared with insulin alone
Description: C3H10T1/2 cells were grown to confluence as described in Example 1, then treated for 10 days with insulin alone (negative control) or with a mixture of insulin and the compound of the formula I-13 at different concentrations (see Table 2), with re-feeding with fresh medium and compounds every 48-h. After 10-days of treatment, the cells were stained with oil Red O as follows: cells were washed 2× in PBS and fixed in 10% formalin at room temperature for 1 h. After removal of formalin, 200 μl of oil Red O staining solution (3:2 mixture of 0.5% w/v oil Red O stock solution and water) was applied to each well. The cells were incubated for 20 min at room temperature, washed twice in 2×PBS and incubated for 10 min with 300 μl of isopropanol/well for oil Red O extraction. Quantification of oil Red O was determined by measuring absorbance at 540 nm (mean OD). […] C3H10T1/2 cells were grown and treated as described in Example 4 with the exception that the compound of the formula I-14 was used instead of the compound of the formula I-13. The measurement of adipocyte differentiation using the oil Red O assay was performed as described in Example 4. […] C3H10T1/2 cells were grown and treated as described in Example 4 with the exception that the compound of the formula I-15 was used instead of the compound of the formula I-13. The measurement of adipocyte differentiation using the oil Red O assay was performed as described in Example 4.

C3H10T1/2 cells [2] = assay: Glucose uptake of adipocytes (radioactive 2-deoxyglucose, basal, without insulin); type: cell-based; conditions: 48-h treatment; for Basal glucose uptake (% of control ± SEM): absence of insulin, DMSO control = 100%; for Basal glucose uptake, result in words: different concentrations
Description: C3H10T1/2 cells (ATCC CCL-226) were grown for 5 days to confluence in DMEM supplemented with 10% FBS medium and induced with a mixture of insulin, dexamethasone and 3-isobutyl-1-methylxanthine to differentiate into adipocytes. Nine days after the beginning of induction, cells were treated for 48-h with the compound of the formula I-13 at different concentrations as shown in Table 1. Glucose uptake was determined using radioactive 2-deoxyglucose (10 μM 2-DG in HBS+0.5 μCi/ml of 3[H]-2-DG), measuring glucose uptake in the absence of insulin. Basal glucose uptake was increased by 48-h treatment with the compound of the formula I-13 in a dose-dependent manner (Table 1). Growing, induction and treatment of C3H10T1/2 cells were exactly as described in Example 1, with the exception that the compound of the formula I-15 at different concentrations was used instead of the compound of the formula I-13. […] Control: C3H10T1/2 cells treated for 48 h with DMSO at the same concentration as compound-treated cells and set at 100%

C57BLKS/J db/db mice = assay: Glucose tolerance / blood glucose in a 14-day db/db mouse study (OGTT); type: in vivo
Description: The efficacy of the compound of the formula I-13 on glucose tolerance was tested in a 14-day study in C57BLKS/J db/db mice (n=10/group), a model of late type 2 diabetes mellitus with severe hyperglycemia.
Male db/db mice were obtained from Jackson Laboratory (Bar Harbor, Me., USA). Adult mice aged 8 weeks were used in the experiment. Mice were housed individually in plastic cages with bedding and allowed free access to standard rodent food and tap water. The animal rooms were controlled for temperature (24° C.), humidity (55%), and light (12-h light-dark cycle). The animals were randomized in two groups and the compound of the formula I-13 was administered orally to one of the groups for 14 days at a dose of 200 mg/kg BW/day. After 14 days of treatment the concentration of glucose was determined in blood from fed animals, i.e., animals which were not restricted from food. After a period of 10 days of treatment an oral glucose tolerance test (OGTT) was performed. For the OGTT mice were fasted overnight and then a 1-g glucose/kg BW solution was orally administered. Blood samples were taken before and 15, 30, 45, 60, 90, 120, 150, 180 min after the glucose challenge for determination of blood glucose levels and then the area under the curve (AUC) was determined. Blood glucose was measured by a glucose analyzer (Glucotrend Premium, Roche Diagnostics, Rotkreuz, Switzerland). The glucose and the free fatty acid (FFA) levels of fed animals (see above) were lowered after 14 days of treatment with the compound of the formula I-13. After 10 days of treatment with the compound of the formula I-13 the glucose levels of fasted animals, i.e., animals with an overnight fasting (see above) were decreased as compared to the untreated control group.

[3] = Insulin 1 × 10^−7 M + compound 1 × 10^−5 M
[4] = 200 mg/kg BW/day orally, after 14 days, fed animals

Compound	Adipocyte differentiation, oil Red O, Mean OD ± SEM (C3H10T1/2 cells [1]; [3])	Differentiation of the cells into adipocytes, result in words (C3H10T1/2 cells [1])	Basal glucose uptake (% of control ± SEM) (C3H10T1/2 cells [2]; 5 × 10^−5 M)	Basal glucose uptake (% of control ± SEM) (C3H10T1/2 cells [2]; 1 × 10^−5 M)	Basal glucose uptake (% of control ± SEM) (C3H10T1/2 cells [2]; 1 × 10^−6 M)	Basal glucose uptake, result in words (C3H10T1/2 cells [2])	further results
COc1ccc(C(=O)C=Cc2cccc(OC(=O)C=Cc3ccccc3)c2)cc1 [I-14]	0.45 ± 0.037	higher differentiation	–	–	–	–	–
CC1(COc2ccc(CC3SC(=O)NC3=O)cc2)CCCCC1 (stereo not shown) [Ciglitazone, reference compound]	–	–	496.178 ± 61.86 % of control	–	–	–	–
COc1ccc(/C=C/C(=O)c2ccc(OC(=O)c3ccccc3)cc2)cc1OC [I-15]	0.53 ± 0.025	higher differentiation	116.17 ± 15.96 % of control	133.28 ± 23.4 % of control	105.37 ± 2.21 % of control	increase	Basal glucose uptake (% of control ± SEM) (C3H10T1/2 cells [2]; 2 × 10^−4 M): 142.84 ± 18.05 % of control; Adipocyte differentiation, oil Red O, Mean OD ± SEM (C3H10T1/2 cells [1]; Insulin 1 × 10^−7 M + compound 2 × 10^−4 M): 0.34 ± 0.087; Adipocyte differentiation, oil Red O, Mean OD ± SEM (C3H10T1/2 cells [1]; Insulin 1 × 10^−7 M + compound 5 × 10^−5 M): 0.53 ± 0.017
COc1ccc(C(=O)/C=C/c2c(CCN(C)C(C)=O)cc3c(c2OC)OCO3)cc1 [I-13]	0.69 ± 0.019	higher differentiation	–	94.58 ± 0.95 % of control	97.6 ± 22.9 % of control	increased	Basal glucose uptake (% of control ± SEM) (C3H10T1/2 cells [2]; 2.4 × 10^−5 M): 128.6 ± 0.89 % of control; Basal glucose uptake (% of control ± SEM) (C3H10T1/2 cells [2]; 5 × 10^−4 M): 194.058 ± 0.05 % of control; Glucose AUC (C57BLKS/J db/db mice; 200 mg/kg BW/day orally, OGTT (1 g glucose/kg BW) on day 10, 0-180 min): 54295; Blood Glucose Fasted (C57BLKS/J db/db mice; 200 mg/kg BW/day orally, after 10 days, overnight fasting): 135 mg/dL; Blood Glucose Fed (C57BLKS/J db/db mice; [4]): 771 mg/dL; FFA (C57BLKS/J db/db mice; [4]): 12.38 mg/dL; Glucose AUC of an OGTT, result in words (C57BLKS/J db/db mice; 200 mg/kg BW/day, OGTT 1 g glucose/kg body weight on day 10): significantly reduced; Glucose levels of fasted animals, result in words (C57BLKS/J db/db mice; 200 mg/kg BW/day, after 10 days, compared to untreated control group): decreased; Glucose and free fatty acid (FFA) levels of fed animals, result in words (C57BLKS/J db/db mice; 200 mg/kg BW/day, after 14 days): lowered; Blood glucose levels during the OGTT, result in words (C57BLKS/J db/db mice; 200 mg/kg BW/day, day 10, compared with control group): lower at all time points
Insulin	–	–	–	–	–	–	Adipocyte differentiation, oil Red O, Mean OD ± SEM (C3H10T1/2 cells [1]; Insulin 1 × 10^−7 M alone (negative control)): 0.28 ± 0.03
